Data as given in patent US8614203B2, “Methods for the treatment of a central nervous system injury via a tapered administration protocol” (Emory University, priority 2005, dated 2013).

Key:
[1] = system: bilateral contusions of the medial prefrontal cortex; assay: Example 1: necrotic cavity, lateral ventricle and striatal area measurements after TBI (Nissl/thionine histology); type: in vivo, Sprague-Dawley rats; settings: 4 mg/kg in peanut oil, 21 days after surgery
Procedure: Male Sprague-Dawley rats (300 g) were housed individually in wire cages and kept on a reverse light-dark cycle (0800-2000 h). […] All procedures involving animals conformed to guidelines set forth in the Guide for the Care and Use of Laboratory Animals (U.S. Department of Health and Human Services, Pub no. 85-23, 1985) and were approved by the Emory University Institutional Animal Care and Use Committee.
Bilateral contusions of the medial prefrontal cortex were created by a pneumatic impactor device as previously described. Briefly, rats were given anesthetized with ketamine/xylazine (90 mg/kg; 10 mg/kg) and placed in a stereotaxic apparatus. A craniectomy (diameter 6 mm) was made over the midline of the prefrontal cortex with its center 1.5 mm AP to bregma. After removal of the bone, the tip of the impactor (diameter 5 mm) was moved to +3.0 mm AP; 1.0 mm ML (from bregma), and checked for adequate clearance. Trauma was produced by pneumatically activating the piston to impact −2.0 mm DV (from dura) at a velocity of 3 m/s with a brain contact time of 0.5 seconds.
Control animals received injections of vehicle at similar time-points. Animals were coded with regard to surgery and treatment to prevent experimenter bias during behavioral testing and histological examination.
Twenty-one days after surgery, animals were perfused with 100 ml 0.1 M phosphate-buffered saline (PBS; pH 7.4) followed by 400 ml 4% paraformaldehyde in 0.1 M phosphate buffer (PB; pH 7.4). Following cryoprotection in 30% sucrose, coronal 40-μm-thick sections were cut on a freezing microtome, immediately mounted on gel-coated slides and stained for Nissl with thionine to determine placement and extent of the injury.
Mean area measurements of lesion size were quantified from sections at 15 rostral-caudal levels spaced 300 μm apart. […] Perimeters of the striatum and the lateral ventricles were also traced and mean areas were quantified from 7 rostral-caudal levels (300 μm apart).
Experienced individuals who were blind to treatment conditions of the study conducted all histological and behavioral analyses. All data were tested for normality and homoschedasticity before being analyzed by parametric analysis of variance (ANOVA). MWM results were analyzed using separate mixed-factorial (4 groups×5 days) analysis of variance (ANOVA) on each of the two 5-day testing periods (acquisition and retention respectively). Results of the BSN task were analyzed using the mixed-factorial ANOVA (4 groups×2 post-injury trials). […] Pearson r coefficients were calculated to determine whether significant correlations could be detected between histological (e.g., lesion size and cellular density) and behavioral parameters (e.g., acquisition and retention of the MWM task and measures of sensory neglect).

GFAP = assay: Example 3: GFAP staining (reactive astrocytes); type: in vivo, Sprague-Dawley rats
Procedure: (§1) Male Sprague-Dawley rats received either medial frontal cortex injury or sham surgery. Injections were given 1 and 6 hours post-injury, and every 24 hours for 7 days. Treatment groups (n=8) encompassed injured (I) and sham (S) acute withdrawal (AW), tapered withdrawal (TW) and vehicle (V) treatments. TW injections were progressively halved over the final two treatments. Behavioral testing was conducted post-surgery, mid- and post-withdrawal. Activity boxes were used to investigate vertical movements and exploration: Sensory neglect and anxiety behaviors were also analyzed. Brain harvesting was performed at 8 days or 3 weeks post-injury. Perfused tissue sections were analyzed for lesion volume and immunohistochemical response. Fresh brain tissue was flash frozen in chilled 2-methyl butane, and then homogenized for Western blot analysis.

BDNF = assay: Example 3: Western blot of brain tissue, BDNF; type: in vivo, Sprague-Dawley rats; settings: TWI vs AWI vs VI, 3 weeks post-injury
Procedure: as §1

ischemic injury = settings: following ischemic injury in rats (Jiang et al. 1996); cited from earlier work
HSP70 = assay: Example 3: Western blot of brain tissue, HSP70; type: in vivo, Sprague-Dawley rats; settings: TWI vs AWI vs VI, 3 weeks post-injury
Procedure: as §1

[2] = system: p53, active Caspase 3, TNFα and NFκB; assay: Example 3: Western blot of apoptotic and inflammatory proteins; type: in vivo, Sprague-Dawley rats
Procedure: as §1

## CC(=O)[C@H]1CC[C@H]2[C@@H]3CCC4=CC(=O)CC[C@]4(C)[C@H]3CC[C@]12C [progesterone, pregn-4-ene-3,20-dione]
[1]; 3 or 5 days
  enlargement of the lateral ventricles: did not have any effect on this measure
  mean striatal area: No between-group differences
[1]; 3 days (LP3), vs injured animals
  necrotic cavity size: tended to be smaller than in the brains of injured animals
[1]; 5 days (LP5), vs vehicle-injected injured animals
  necrotic cavity formation: significant reductions in overall necrotic cavity formation
GFAP; acute withdrawal, injured, rank between TWI and VI
  reactive astrocytes (GFAP staining): followed by AWL
GFAP; tapered withdrawal, injured (TWI)
  reactive astrocytes (GFAP staining): fewest reactive astrocytes
BDNF
  BDNF expression: increased for TWI over AWI over VI at 3 weeks post-injury
Ischemic injury
  cell damage and neurological deficit: reduce cell damage and neurological deficit
HSP70
  HSP70 expression: increased for TWI over AWI over VI at 3 weeks post-injury
[2]; all progesterone treatments (acute and tapered) vs vehicle-only controls
  expression of apoptotic and inflammatory proteins, outcome vs vehicle: all progesterone treatments led to better outcomes compared to vehicle-only controls
[2]; tapered withdrawal (TW)
  apoptosis and inflammation (p53, active Caspase 3, TNFα, NFκB): decreased with TW
